Test results published in patent US20230416196A1, “DIMER OF BIGUANIDINES AND THEIR THERAPEUTIC USES” (INSTITUT CURIE, priority 2020, published 2023).

Legend:
[1] = test system: biopsy-derived organoids of PDAC; assay: Chemograms on biopsy-derived organoids of pancreatic ductal adenocarcinoma; assay type: cell-based, human; conditions: 72 h, CellTiter-Glo 3D; FIG. 9
From the text: Biopsy-derived pancreatic organoid (BDPO) generation. BDPOs were obtained from endoscopic ultrasound-guided fine-needle aspirations (EUS-FNA) from patients with PDAC included under the PaCaOmics clinical trial (ClinicalTrials.gov: NCT01692873) after approval by the Paoli-Calmettes hospital ethics committee and following patient informed consent. Cultures were established as previously described. Briefly, PDAC biopsies were slightly digested with the Tumor Dissociation Kit (Miltenyi Biotec) at 37° C. for 5 minutes. The pancreatic tissue slurry was transferred into a tissue strainer 100 μm and was placed into 12-well plates coated with 150 μL GFR matrigel (Corning, Boulogne-Billancourt, France). […]
Chemograms on BDPO. […] 24 hours later, one plate was used directly for RNA preparation (Time 0 transcriptome) and on the other the medium was supplemented with increasing concentrations of each drug, 72 hours later cell viability was measured with CellTiter-Glo 3D (Promega) reagent quantified using the plate reader Tristar LB941 (Berthold Technologies). Values were normalized and expressed as the percentage of the control (vehicle), which represents 100% of normalized fluorescence. […]

lymphocytes (CD4, CD8) = assay: Activation of CD4 and CD8 lymphocytes (CD25, CD69 flow cytometry); assay type: cell-based, human; conditions: LCC-12 10 μM, 48 h, CD3/CD28 activation; FIG. 6A-B
Description: (§1) CD4 Lymphocytes. Peripheral blood samples were collected from healthy donors (Etablissement Français du Sang). CD4 lymphocytes were isolated by negative magnetic sorting using microbeads according to the manufacturer's instructions (Miltenyi Biotec, 130-096-533) and cultured in RPM11640 supplemented with glutamine and 10% fetal bovine serum. CD4 lymphocytes were activated for 48 h using CD3/CD28 antibodies (2.5 μg/mL), in presence of LCC-12 (10 μM). The activation status of the lymphocytes was assessed by measuring CD25 and CD69 surface markers by flow cytometry.
as §1, with “CD8” for “CD4”, “130-096-495)” for “130-096-533)”, “activated” for “activated for”

[2] = test system: mice challenged by cecal ligation and puncture; assay: Murine model of sepsis using cecal ligation and puncture (CLP); assay type: in vivo, BALB/c mice
Description: Murine model of sepsis using cecal ligation and puncture. All animal-related research is conducted in accordance with 2010/63/EU and National legislation regulating the use of laboratory animals in scientific research and for other purposes (Official Gazette 55/13). An Institutional Committee on Animal Research Ethics (CEEA-047) oversees that animal-related procedures are not compromising the animal welfare. 9 weeks-old male BALB/c mice were used for these experiments. Animals were anesthetized by isoflurane (Forene). After abdominal incision, the cecum was ligated, punctured with a gauge needle (25G or 21G), and a small amount of fecal matter was released. After the cecum was returned to the abdomen, the abdominal cavity was closed in two layers and the mice were resuscitated with 30 mL/kg body weight of saline (0.9% NaCl) administered subcutaneously. For the sham group, after abdominal incision, the cecum was manipulated but was neither ligated nor punctured. After the cecum was returned to the abdomen, the abdominal cavity was closed in two layers and the mice were resuscitated with 30 mL/kg body weight of saline administered subcutaneously. LCC-12 (0.3 mg/kg, IP) was administered at 0.3 mg/kg dose 4 h, 24 h, 48 h, 72 h and 96 h following CLP creation. Mortality incidence was monitored every 2 h up to 120 h (except from 10 pm to 6 am) post CLP creation. Dexamethasone was administered intraperitoneally at 1 mg/kg dose 5-minutes prior CLP creation.

SMILES: N=C(N)NC(=N)NCCCCCCCCCCCCNC(=N)NC(=N)N [LCC-12, lipophilic copper clamp C12]
- efficacy (IC50) on biopsy-derived organoids of PDAC [1]: low micromolar range
- activation of lymphocytes (lymphocytes (CD4, CD8)): decreases the activation
- survival in CLP sepsis ([2]; 21G needle, LCC-12 0.3 mg/kg IP, FIG. 5A): delayed death and increased survival rate
- body weight loss in CLP-induced sublethal sepsis ([2]; 25G needle, LCC-12 0.3 mg/kg IP, FIG. 5C): reduced body weight loss
- overall gravity score of symptoms in CLP-induced sublethal sepsis ([2]; 25G needle, LCC-12 0.3 mg/kg IP, FIG. 5D): improved the overall gravity score of symptoms
- symptoms of sepsis compared to dexamethasone ([2]; CLP, throughout the treatments): considerably attenuated the symptoms of sepsis compared to dexamethasone
